Assay results reported in patent US8889411B2, “Modulation of stem and progenitor cell differentiation, assays, and uses thereof” (Anthrogenesis Corporation, priority 2002, dated 2014).

How the values were obtained:
[1] = system: Purified human cord blood CD34+ cells; assay: Monocyte production: CD34/CD14 staining of cord blood CD34+ cells cultured 14 days with cytokines; assay type: cell-based
Experimental: Purified human cord blood CD34+ cells (greater than 90% CD34+) were cultured in 20% FCS IMDM medium supplemented with cytokines (IL3, IL6, G-CSF, KL and Epo) at 4×10^4 cells/ml for 14 days at 37° C. in a humidified 5% CO2 incubator. The experimental groups consisted of a group in which (i) no DMSO or chemical compounds were added (“None”), (ii) DMSO only, (iii) Thalidomide dissolved in DMSO, (iv) ACTIMID™ dissolved in DMSO, and (v) REVIMID™ dissolved in DMSO. Aliquots of cells were harvested and stained with CD34-PE conjugated monoclonal antibody and CD14-FITC conjugated monoclonal antibody.

[2] = system: adult SJL/L mice with bone marrow ablation by lethal irradiation; assay: Transplantation of ACTIMID-pretreated nucleated cells into lethally irradiated mice; assay type: in vivo, mouse; settings: for % Starting Body Weight at 50 days: irradiated mice
Experimental: Placental nucleated cells (PLNC), umbilical cord blood nucleated cells (UCBNC) and bone marrow cells (BMNC) were obtained from human donors. PLNC and UCBNC were obtained from placenta and umbilical cord using methods described in Section 5.4 above.
The cells were pretreated by incubation in DMEM supplemented with 2% human CB serum with 10 µg/ml ACTIMID™ for 24 hours. Cells were then washed, resuspended in autologous plasma, and administered intravenously to recipient adult SJL/L mice (Jackson Laboratories) that had bone marrow ablation produced by lethal irradiation (900cGy) according to standard methods. Such irradiation is better than 90% lethal by 50 days post-irradiation (Ende et al., 2001, Life Sciences 69(13):1531-1539; Chen and Ende, 2000, J. Med. 31: 21-30; Ende et al., 2000, Life Sci. 67(1):53-9; Ende and Chen, 2000, Am. J. Clin. Pathol. 114: 89).

[3] = system: CD1a+CD14− and CD1a−CD14+ cells (DC progenitors); assay: Detection of apoptosis (Annexin V-FITC / propidium iodide) in isolated DC progenitors; assay type: cell-based, human; settings: 1 μM; 2 days; GM-CSF and TNF-α
Experimental: Detection of apoptosis: Phosphatidyl serine exposure was determined using Annexin V-FITC staining in combination with propidium iodide (BD Pharmingen apoptosis detection kit I) following manufacturer instruction.
Block in DC generation is not mediated by specific killing of the DC progenitors: To determine if the decrease in DC progenitors was mediated by specific killing, CD34^+ progenitor cells were cultured for a period of 6 days in the presence of SCF, Flt-3L, GM-CSF and TNF-α. At day 6, CD1a^+CD14^− and […] cells (DC progenitors) were isolated by magnetic cell sorting (Miltenyi). Purified populations were cultured for an additional 2 days in the presence of GM-CSF and TNF-α with or without ACTIMID™ (1 μM).

[4] = system: cells derived from CD34+ progenitor cells; assay: Phagocytosis: FITC-dextran uptake (mannose receptor-mediated endocytosis); assay type: cell-based, human; settings: compared to DMSO control
Experimental: Phagocytosis: The endocytic activity of the cells was analyzed by measuring FITC-dextran uptake. Cells were incubated with 1 mg/ml dextran-FITC (Sigma) in complete medium at 37° C. for 1 hour and 4° C. for 1 hour as a negative control. Results presented are representative of two independent experiments.

[5] = system: allogenic CD3+ T cells stimulated by CD34+-derived DC cells; assay: T cell proliferation assay (Mixed Leucocyte Reaction); assay type: cell-based, human; settings: compared to DMSO control
Experimental: T cell proliferation assay: After 13 days of culture, CD34^+-derived DC cells were collected, and after treatment with mitomycin C (50 μg/ml, Sigma), used as stimulators cells for allogenic adult CD3^+ T cells purified from peripheral blood mononuclear cells (PBMCs) from healthy volunteers. CD3^+ T responder cells were used at a concentration of 5×10^4 cells/well. Stimulators cells were added in graded doses to the T cells in black 96-well flat bottom, clear bottom tissue culture plates for chemiluminescence detection. Cultures were performed in RPMI 1640 medium supplemented with 10% heat-inactivated FBS, glutamine and Penicillin-streptomycin. After 6 days of culture, cell proliferation was measured with the BrdU chemiluminescence assay (Roche, Nutley N.J.), following manufacturer instructions. Results are presented as the mean±SD obtained from triplicate cultures.

Nc1cccc2c1C(=O)N(C1CCC(=O)NC1=O)C2=O (stereo not shown) [ACTIMID™, 4-(Amino)-2-(2,6-dioxo(3-piperidyl))-isoindoline-1,3-dione]
percentage of monocyte lineage cells ([1]; 5 μg/ml, compared to control, FIG. 13): increase
percentage of CD34+ cells of the total cells ([1]; 14 days, IL3, IL6, G-CSF, KL and Epo, compound dissolved in DMSO): 18.7%
production of monocytes (CD14+ cells) ([1]; 14 days, relative to DMSO-treated group): overcome
survival of transplanted PLNC, UCBNC and BMNC ([2]; ACTIMID pre-treatment of cells): increases the survival
# of Animals Dead at 50 days ([2]; PLNC 5 × 10^6 + ACTIMID pre-treatment (10 g/ml, 24 hours) intravenous, 4 animals irradiated (900cGy)): 0
% Starting Body Weight at 50 days ([2]; PLNC 5 × 10^6 + ACTIMID pre-treatment intravenous): 102%
# of Animals Dead at 50 days ([2]; UCBNC 10 × 10^6 + ACTIMID pre-treatment intravenous, 3 animals irradiated (900cGy)): 0
% Starting Body Weight at 50 days ([2]; UCBNC 10 × 10^6 + ACTIMID pre-treatment intravenous): 84%
level of annexin V+-PI− (early apoptosis) and annexin V+-PI+ (late apoptosis) populations [3]: no significant increase
phagocytic capacity at day 12 ([4]; compound from day 1 to day 12): strong decrease
phagocytic capacity at day 12 ([4]; compound from day 6 to day 12): comparable
capacity to stimulate the proliferation of T-cells ([5]; compound from day 1 to day 12): reduced capacity
capacity to stimulate the proliferation of T-cells ([5]; compound from day 6 to day 12): comparable
